# Read-outs that look alike come from different tables or passages of the source.
# Experiments:
# SOCE in Jurkat T cells = experiment: Inhibition during activated SOCE (thapsigargin or anti-CD3 OKT3, 1 mM extracellular Ca2+) in Jurkat T cells; assay type: cell-based, human; details: Homo sapiens, Jurkat, Jurkat T cells stimulated by 1 μM thapsigargin (TG); 1 mM extracellular Ca2+; read-out: IC50 of SOCE inhibition during active SOCE
# Experimental: (§1) Jurkat T-lymphocytes, primary human CD4^+ T cells and H1299 cells were pelleted at 450 ×g for 5 min, rat TMBP at 300 ×g for 8 min at room temperature and were resuspended in 1 ml of either standard JMP medium (Jurkat, H1299 and human CD4^+ T cells) or standard DMEM based medium containing 10% fetal bovine serum (FBS) (v/v) (TMBP cells). Resting TMBP cells (day 5–7 after re-stimulation) after the second to fifth re-stimulation were thawed from liquid nitrogen 12 to 40 h prior to Fura2-loading. After pre-incubation for 5 min at 37 °C, cells were incubated with 4 μM Fura2-AM for 15 min at 37 °C. After addition of the dye, cells were kept in the dark. Afterwards, cells and the dye were diluted by addition of 4 ml standard medium and incubated for another 15 min. Cells were washed twice in Ca^2+ buffer (140 mM NaCl, 5 mM KCl, 1 mM MgSO4, 1 mM CaCl2, 1 mM NaH2PO4, 20 mM HEPES, 5.5 mM glucose; pH 7.4 (NaOH), sterile filtered) and were diluted to a concentration of 2*10^6 cells/ml. Subsequently, cells were kept at room temperature for 20 min for de-esterification before the start of the first measurement.
# 10^6 Jurkat T-lymphocytes, H1299 cells, TMBP cells or 4*10^6 primary human CD4^+ T cells were added into a 10 × 10 mm quartz glass cuvette (Hellma Analytics, Germany) that was placed into a fluorescence spectrophotometer (F-2710, Hitachi, Japan). In experiments using a Ca^2+ free/Ca^2+ re-addition protocol, cells were pelleted as described for Fura2 loading and Ca^2+ buffer was exchanged by 1 ml nominal Ca^2+ free buffer (140 mM NaCl, 5 mM KCl, 1 mM MgSO4, 1 mM NaH2PO4, 20 mM HEPES, 5.5 mM glucose; pH 7.4 (NaOH), sterile filtered) immediately before starting the measurement. The measurement was controlled by FL Solutions (Version 4.1, Hitachi High-Technologies Corporation). Fura2 was alternatively excited every 2 s at 340 ± 5 nm and 380 ± 5 nm, each 400 ms apart. Fluorescence intensity was measured at an emission wavelength of 495 ± 5 nm for both excitation wavelengths.
# Finally, every measurement was calibrated using 0.1% (v/v) Triton X-100 to obtain a maximal ratio and 4 mM EGTA and 30 mM Tris to obtain a minimal ratio. […]
# Besides the Ca^2+ free/Ca^2+ re-addition protocol, we also characterized the effect of STX564 in cells during activated SOCE in the presence of thapsigargin (TG, Fig. 2A,B) or upon stimulation via their TCR/CD3 complex (Fig. 2C). […]. […] Similarly, in Fig. 2C this effect of a partial or full recovery of SOCE was also observed, a few minutes after STX564 addition.
# human PBMCs = experiment: In vitro activation of human PBMCs by anti-CD3, interferon-γ mRNA by qPCR; assay type: cell-based; details: human PBMC; anti-CD3 stimulation
# Experimental: In vitro activation assays were performed in 96-well plates. Briefly, 10^5 PBMCs isolated from human peripheral blood by Ficoll gradient were added onto plates coated with anti-human CD3 monoclonal antibody (5 μg ml^−1 in PBS, clone OKT3, Biolegend). 2ME2 or STX564 dissolved in DMSO were added in varying concentrations (0.01, 0.1, 1, 10 μM). […]. PBMC activation on mRNA level was determined using qPCR on samples collected 24 h after CD3 stimulation.
# (§2) Total RNA was isolated using the standard TRIzol method. cDNA was synthesized using the RevertAid First Strand cDNA Synthesis Kit (Thermo Fisher Scientific). Quantitative PCR (qPCR) was performed using the StepOnePlus™ Real-Time PCR System (Applied Biosystems), as previously described [[23], [24], [25]]. Rat TMBP cell data were obtained from three to four independent duplicate measurements. β-actin served as housekeeping gene. Human PBMC data were obtained from two independent healthy donors and duplicate measurements (representative data of one donor are shown). HPRT served as housekeeping gene. For all probes (TaqMan), a combination of 5′-FAM and 3′-TAMRA quencher was used as described.
# TMBP cells [1] = experiment: In vitro activation of TMBP cells by MBP, CD25 surface expression by flow cytometry; assay type: cell-based, rat
# Experimental: (§3) In vitro activation assays were performed in 96-well plates. […]. TMBP cell activation on mRNA level was determined using qPCR and on surface protein level using surface marker staining and subsequent flow cytometry analysis.
# To assess in vitro T cell activation, surface staining for CD25 (OX39, Bio-Rad) was performed. APC-labelled goat anti-mouse antibody (Jackson ImmunoResearch) was used as secondary antibody. Mouse IgG1κ (MOPC 31C, Sigma-Aldrich) was used as control.
# Cytofluorometric analysis was carried out with a CytoFLEX S (Beckman Coulter) operated by CytExpert software (Beckman Coulter). All procedures were performed at 4 °C. Data were analyzed by using FlowJo software (FlowJo, LLC).
# [2] = system: SOCE in human Jurkat T cells; experiment: cells; assay type: cell-based
# Experimental: as §1
# In experiments using a Ca^2+ free/Ca^2+ re-addition protocol, cells were pelleted as described for Fura2 loading and Ca^2+ buffer was exchanged by 1 ml nominal Ca^2+ free buffer (140 mM NaCl, 5 mM KCl, 1 mM MgSO4, 1 mM NaH2PO4, 20 mM HEPES, 5.5 mM glucose; pH 7.4 (NaOH), sterile filtered) immediately before starting the measurement. The measurement was controlled by FL Solutions (Version 4.1, Hitachi High-Technologies Corporation). Fura2 was alternatively excited every 2 s at 340 ± 5 nm and 380 ± 5 nm, each 400 ms apart.
# Finally, every measurement was calibrated using 0.1% (v/v) Triton X-100 to obtain a maximal ratio and 4 mM EGTA and 30 mM Tris to obtain a minimal ratio.
# R is the ratio between F340 and F380. Rmin and Rmax are the minimal and maximal ratio, respectively, obtained by calibration. F380 min and F380 max are the minimal and maximal fluorescence intensity at 380 nm EX during the calibration. Finally, artefacts due to compound additions that usually could easily be identified and lasted about 8 s were deleted from the tracings using FL Solutions (Version 4.1, Hitachi High-Technologies Corporation). The fluorescence intensities of deleted data points were interpolated from those just before and after the deleted time points.
# Estradiol, 2ME2 and 2ME2 derivatives were dissolved in DMSO at a concentration of 50 mM and stored at −20 °C for up to 6 months. For concentration-response curves, stock solution was freshly diluted with DMSO to obtain the same DMSO concentration of 0.2% (v/v) for all conditions.
# The compound concentrations were then log transformed. Finally, the data were fitted to a corresponding nonlinear fit of variable slope using Prism 6 (GraphPad Software, USA).
# TMBP cells [3] = experiment: In vitro activation of TMBP cells by MBP, cytokine mRNA by qPCR; assay type: cell-based, rat; details: TMBP cells + MBP; 6 h; qPCR
# Experimental: Myelin basic protein (MBP)-reactive CD4^+ T cells retrovirally transduced to express enhanced GFP (TMBP cells) were established as previously reported. In brief, 6–8 week old female Lewis rats were immunized subcutaneously with 150 μl of emulsion consisting of equal parts of MBP (stock concentration: 1 mg/ml) and complete Freund's adjuvant containing heat-inactivated Mycobacterium tuberculosis extract (Difco; stock concentration: 2 mg/ml). Draining lymph nodes were harvested and passed through a cell strainer (40 μm) 9–10 days after immunization. The cell suspension was co-cultured with GP + E86 packaging cell lines producing replication-deficient retroviruses in the presence of 10 μg/ml MBP. Murine IL-2 was added to the culture for T cell expansion from day 2–4 after stimulation. The cell lines underwent 3–4 cycles of stimulation before being used for in vitro and in vivo experiments. […] Upon stimulation, they produced interferon-γ and IL-17.
# as §3, §2
# SERCA pumps = experiment: SERCA activity (ATP-induced Ca2+ reuptake) in permeabilized Jurkat T cells; assay type: cell-based, human
# Experimental: (§4) 3 ∗ 10^7 Jurkat T-lymphocytes per measurement were centrifuged at 450 ×g for 5 min at room temperature. The pellet was rinsed twice, each time using 10 ml permeabilization buffer 1 (120 mM KCl, 10 mM NaCl, 1.2 mM MgCl2, 0.533 mM CaCl2, 1 mM EGTA and 10 mM HEPES, pH 7.2 (KOH), sterile filtered). Subsequently, the pellet was resuspended in 2 ml permeabilization buffer 1 containing 80 μg/ml saponin (Fluka) and the cells were incubated for 10 min at 37 °C. Subsequently, the cells were centrifuged at 450 ×g for 5 min at room temperature and the cell pellet was washed once in 10 ml permeabilization buffer 2 (120 mM KCl, 10 mM NaCl, 1.2 mM MgCl2 and 10 mM HEPES, pH 7.2 (KOH), sterile filtered). Finally, the cells were taken up in 1 ml permeabilization buffer 2, placed into a cuvette and measured at the fluorescence spectrophotometer. Before the start of the measurement, 0.5 μl of 1 mM Fura2 free acid (dissolved in pure water, final concentration: 0.5 μM), 5 μl of 5 mg/ml creatinkinase (dissolved in permeabilization buffer 2, final concentration: 25 μg/ml, 20 U/ml, Roche) and 10 μl of 2 M creatin phosphate (dissolved in permeabilization buffer 2, final concentration: 20 mM, Calbiochem) were added. Fura2 was used to measure the Ca^2+ concentration and creatinkinase and creatin phosphate were used as ATP-regenerating system. The measurement was controlled by FL Solutions (Version 4.1, Hitachi High-Technologies Corporation). Fura2 was alternatively excited every 2 s at 340 ± 5 nm and 380 ± 5 nm, each 400 ms apart. Fluorescence intensity was measured at an emission wavelength of 495 ± 5 nm for both excitation wavelengths. […] Ca^2+ concentrations were calculated according to Grynkiewicz et al. as described earlier in Section 2.4.
# (§5) As a quantitative read-out for inhibition of IP3 receptors, the peak [Ca^2+] after IP3 addition was subtracted from the mean [Ca^2+] between 25 and 75 s before IP3 addition (dPeak). […] The rate constant K of the fitted data was used as a quantitative read-out for SERCA pump activity and its inhibition.
# IP3 receptors = experiment: IP3-evoked Ca2+ release in permeabilized Jurkat T cells; assay type: cell-based, human; details: 2 μM IP3
# Experimental: as §4, §5
# [4] = Homo sapiens, Jurkat, Jurkat T cells, Ca2+ free/Ca2+ re-addition protocol, plateau 425-475 s after re-addition of 1 mM Ca2+, read-out: IC50 of SOCE inhibition
# [5] = Jurkat T cells, Ca2+ free/Ca2+ re-addition protocol
# [6] = Homo sapiens, Jurkat, read-out: IC50 of SOCE inhibition, Jurkat T cells, Ca2+ free/Ca2+ re-addition protocol, plateau 425-475 s after re-addition of 1 mM Ca2+
# [7] = Jurkat T cells, Ca2+ free/Ca2+ re-addition protocol, plateau 425-475 s after re-addition of 1 mM Ca2+, read-out: IC50 of SOCE inhibition
structure (smiles),measurement,setting,value
"COc1cc2c(cc1O)CC[C@@H]1[C@@H]2CC[C@]2(C)[C@@H](O)CC[C@@H]12 [2ME2, 2-Methoxyestradiol]",IC50,SOCE in Jurkat T cells,71 µM
same,fold higher concentration necessary compared to STX564 for antagonist effect on interferon-γ expression,human PBMCs,approx. 10 fold
same,concentration at which up-regulation of CD25 was significantly reduced,TMBP cells [1],much higher concentration
same,IC50,[2]; [4],20 µM
same,fold higher potency compared to estradiol in inhibiting Ca2+ entry,"[2]; Jurkat T cells, SOCE",2.5 fold
same,concentration at which TCR/CD3-evoked pro-inflammatory cytokine expression was significantly reduced,TMBP cells [3],significantly higher concentrations
"C[C@]12CC[C@@H]3c4ccc(O)cc4CC[C@H]3[C@@H]1CC[C@@H]2O [E2, estradiol]",IC50,[2]; [4],55 µM
COc1cc2c(cc1OS(N)(=O)=O)CCC1C2CCC2(C)C(O)CCC12 (centres unmarked) [STX68],IC50,"[2]; Homo sapiens, Jurkat, read-out: IC50 of SOCE inhibition",25 µM
"CCc1cc2c(cc1O)CCC1C2CCC2(C)C(O)CCC12 (centres unmarked) [STX139, 2-ethyl-estradiol]",IC50,[2]; [4],~12 µM
same,concentration giving almost complete inhibition of Ca2+ entry,[2]; [5],50 µM
CCc1cc2c(cc1OS(N)(=O)=O)CCC1C2CCC2(C)C(OS(N)(=O)=O)CCC12 (centres unmarked) [STX243],IC50,[2]; [4],5.2 µM
same,concentration giving almost complete inhibition of Ca2+ entry,[2]; [5],25 µM
same,IC50 fold smaller as compared to STX139,"[2]; Jurkat T cells, SOCE",approx. 2 fold
CCc1cc2c(cc1O)CCC1C2CCC2(C)C(CC#N)CCC12 (centres unmarked) [STX505],IC50,[2]; [6],1.7 µM
COc1cc2c(cc1O)CCC1C2CCC2(C)C(CC#N)CCC12 (centres unmarked) [STX640],IC50,[2]; [6],2.1 µM
same,fold more potent than the 17β-hydroxyl-compound (2ME2),"[2]; Jurkat T cells, SOCE",10 fold
COc1cc2c(cc1OS(N)(=O)=O)CCC1C2CCC2(C)C(CC#N)CCC12 (centres unmarked) [STX641],IC50,[2]; [4],1.7 µM
same,fold more potent than the 17β-hydroxyl-compound (2ME2),"[2]; Jurkat T cells, SOCE",10 fold
CCc1cc2c(cc1O)CCC1C2CCC2(C)C(C[N+](=O)[O-])CCC12 (centres unmarked) [STX1175],IC50,[2]; [4],1.4 µM
CCc1cc2c(cc1OS(N)(=O)=O)CCC1C2CCC2(C)C(C[N+](=O)[O-])CCC12 (centres unmarked) [STX1177],IC50,[2]; [4],1.3 µM
same,IC50,[2]; [7],~1 µM
CCc1cc2c(cc1O)CCC1C2CCC2(C)C(CC(C)=O)CCC12 (centres unmarked) [STX1306],IC50,[2]; [4],1.6 µM
CCc1cc2c(cc1OS(N)(=O)=O)CCC1C2CCC2(C)C(CC(C)=O)CCC12 (centres unmarked) [STX1307],IC50,[2]; [4],1.1 µM
same,IC50,[2]; [7],~1 µM
C/C=C(/C)C(=O)O[C@H]1C(C)=C2[C@H]([C@@H]1OC(=O)CCCCCCC)[C@@](C)(OC(C)=O)C[C@H](OC(=O)CCC)[C@@]1(O)[C@H]2OC(=O)[C@@]1(C)O [thapsigargin],effect on SERCA activity (initial slope of [Ca2+] upon ATP addition),SERCA pumps,almost completely abolished
same,effect on IP3-evoked Ca2+ release,IP3 receptors,eliminating effects of IP3
